Source: patent publication US6432681B1, “Compositions for treating Escherichia coli urinary tract infections” (The Regents of the University of Washington, priority 1992, dated 2002)

Experiments:
[1] = system: Escherichia coli R45; assay: Bacterial overlay assay: binding of 35S-labelled E. coli R45 to glycolipids separated on HPTLC; settings: for binding of E. coli R45 to glycolipid standards: GSL standards separated on HPTLC plates; for reaction of E. coli R45 with SGG and DSGG standards (FIG. 1A): standards run beside vaginal epithelial cell gangliosides, autoradiogram
Protocol: E. coli R45 was isolated from a person with cystitis which had the pap family genotype, expressing both the P and F adhesins (Stapleton, A. et al., J. Infect Dis., 163:773-779, 1989). Organisms were kept frozen in 50% glycerol/50% Luria broth (Maniatis, T. et al., Molecular Cloning: A Laboratory Manual, 1982) at −70° C. until the night before use, when they were streaked onto Luria agar plates (Maniatis, T. et al., Molecular Cloning: A Laboratory Manual, 1982) to promote fimbrial expression and grown overnight at 37° C. On the day of use, bacteria were scraped from the plate, resuspended in M9 medium (Maniatis, T. et al., Molecular Cloning: A Laboratory Manual, 1982) without amino acids, and shaken at 37° C. for 40 minutes to deplete cellular methionine stores. ^35S-methionine (Trans^35S-label, 1137 Ci/mmol, ICN Biochemicals, Irvine, California) was then added at 200 μCi per 10^10 organisms. The cells were shaken for one hour, washed three times in PBS and resuspended in PBS (pH 7.3), and counted in a scintillation counter to give a final activity of approximately 0.01 to 0.02 cpm/organism.
(§1) Glycolipids (10 to 40 μg/lane) were chromatographed on glass HPTLC plates (Whatman) in CMW (50:40:10 by volume) with 0.05% CaCl2 with one plate run in parallel for orcinol staining. Plates were dried, dipped for 1 minute in diethyl ether containing 0.5% polyisobutylmethacrylate, dried, and preincubated in 1% bovine serum albumin (BSA)/PBS for one hour, then washed three times in PBS. Radiolabelled bacteria were overlaid (10^8 cpm total per plate) and the plates were gently rocked for one hour, washed four times in PBS and subjected to autoradiography.
The binding of metabolically radiolabelled E. coli strain R45 to glycolipid standards separated on HPTLC plates was determined using a broad panel of GSLs with varying carbohydrate moieties, as shown in Table 2.
Subsequent experiments were conducted to identify the unique E. coli-binding GSL band detected in nonsecretors' vaginal epithelial cells. Total upper neutral GSLs and total upper gangliosides were extracted from vaginal epithelial cells pooled in equal quantities from 5 nonsecretors and 9 secretors and reacted with radiolabelled E. coli R45.
Lane 1 contains ceramide trihexoasyl and globoside standards; Lane 2 contains total lower phase GSLs from the nonsecretors; Lane 3 contains total lower phase GSLs from the secretors; Lane 4 contains the Forssman antigen standard; Lanes 5 and 6 contain total upper neutral GSLs from nonsecretors and secretors, respectively; Lanes 7 and 10 contain gal-globoside, sialosyl gal-globoside, and disialosyl gal-globoside standards; Lanes 8 and 9 contain total upper phase gangliosides from nonsecretors and secretors, respectively.

[2] = system: E. coli isolates R45, IA2, JJ122, pDC1 and pJFK102; assay: Bacterial overlay assay: binding of five 35S-labelled E. coli UTI isolates to serially diluted globo-series GSLs, radioactivity counted; design: species or system Escherichia coli; settings: all five isolates; GSL serially diluted from 300 ng to 18.25 ng on HPTLC
Protocol: as §1
Five isolates of E. coli were isolated from patients with UTI, R45 (wild-type cystitis isolate expressing class II pap adhesin), IA2 (wild-type isolate expressing class II pap adhesin), JJ122 (expresses class I pap adhesin), pDC1 (a subclone of IA2, expresses class II pap adhesin) and pJFK102 (expresses class III pap adhesin). The five strains were labelled metabolically with ^35S and exposed to various glycosphingolipids (GSL) separated by HPTLC in the bacterial overlay assay described hereinabove. The amount of radioactivity in the area of each GSL was counted. Controls included HB101.
The GSL's tested were CTH (globotriaosylceramide, isolated from human red blood cells), globoside (also isolated from human erythrocytes), SGG (isolated from vaginal epithelial cells or human kidney), CMH (ceramide monohexoside isolated from adenocarcinoma of colon, negative control) and DSGG (isolated from the same sources as SGG). The GSL's were serially diluted beginning with 300 ng and ending at 18.25 ng.

[3] = system: MAb ID4 (directed against SGG); assay: Radioimmunoassay of GSLs immobilized in microtiter wells with MAb ID4; type: binding; settings: standards from human pancreas, bovine brain (GD1a), human placenta (disialosyl I)
Protocol: Radioimmunoassays of GSLs immobilized in microtiter wells were performed according to the method of Karlsson (Karlsson, K.-A. et al., Methods Enzymol., 138:220-232, 1987).
The SGG and DSGG bands from the nonsecretors' vaginal epithelial cell extracts were then reacted with ID4 in a radioimmunoassay, shown in FIG. 3.
In FIG. 3, the dotted line indicates sialosyl gal-globoside (SGG) standard from human pancreas; the solid line indicates the band co-migrating with SGG eluted from TLC of nonsecretors' extracted vaginal epithelial cells; the dashed line indicates eluted band co-migrating with DSGG from nonsecretors and the following GSL standards: gal-globoside and DSGG from human pancreas, GD1a from bovine brain, and disialosyl I from human placenta.

| Substance | binding of E. coli R45 to glycolipid standards [1] | level of binding of the E. coli isolates to the GSL [2] | reaction of antibody ID4 with GSL standards (FIG. 3) [3] | reaction of E. coli R45 with SGG and DSGG standards (FIG. 1A) [1] |
| --- | --- | --- | --- | --- |
| GalNAcβ1-3 Galα1-4 Galβ1-4 Glcβ1-1cer [Globoside] | bound | lower than to DSGG |  |  |
| GalNAcα1-3 Galβ1-3 GalNAcβ1-3 Galα1-4 Galβ1-4 Glcβ1-1cer [Forssman] | bound |  |  |  |
| (Fucα1-2)Galβ1-3 GalNAcβ1-3 Galα1-4 Galβ1-4 Glcβ1-1cer [Globo H] | bound |  |  |  |
| Galα1-4 Galβ1-4 Glcβ1-1cer [CTH] |  | lower than to DSGG |  |  |
| GalNAcα1-3 (Fucα1-2)Galβ1-3 GalNacβ1-3 Galα1-4 Galβ1-4 Glcβ1-1cer [Globo A] | bound |  |  |  |
| Galβ1-3 GalNAcβ1-3 Galα1-4 Galβ1-4 Glcβ1-1cer [Gal-globoside] | bound |  | did not bind |  |
| GD1a |  |  | did not bind |  |
| NeuAcα2-3 Galβ1-3 GalNAcβ1-3 Galα1-4 Galβ1-4 Glcβ1-1ce [SGG] |  | highest binding | reacted | reacted |
| NeuAcα2-3 (NeuAcα2-6)Galβ1-3 GalNAcβ1-3 Galα1-4 Galβ1-4 Glcβ1-1cer [DSGG] |  |  | did not bind | reacted |
